Tests used:
[1] = tested on: Caenorhabditis elegans young adults; experiment: In vitro activity on C. elegans; format: cell-based
H. contortus xL3s [2] = experiment: Dose-response evaluation, xL3 motility; format: cell-based; conditions: Haemonchus contortus
Description: These evaluations were carried out to estimate the half-maximal inhibitory concentrations (IC50 values) for hit compounds against H. contortus xL3s. With reference to the two positive-control compounds (monepantel and moxidectin), IC50 values for compounds were estimated ([Preston et al., 2015]; [Taki et al., 2021a]) using two-fold serial dilution (in LB*; 9 points from 50 μM to 0.2 µM) in 96-well plates (cat. no. 3596; Corning) with larvae at a density of 300 H. contortus xL3s in 100 µl per well. Plates containing H. contortus xL3s were incubated at 38°C, 10% (v/v) CO2 and >90% relative humidity.
Compound concentrations were log10-transformed and fitted using a variable slope four-parameter equation, constraining the highest value to 100% employing a least squares (ordinary) fit model using GraphPad Prism software (v.9.1.2). Compounds were tested by three independent experiments in triplicate. A one-way analysis of variance (ANOVA) with a Tukey’s multiple comparison test or an unpaired t-test was used to establish statistically significant differences in larval motility or development.

[3] = tested on: H. contortus xL3 to L4 development; experiment: High throughput screen, larval development and phenotype at 168 h; format: cell-based, Haemonchus contortus
Description: Following the measurement of xL3 motility, plates were incubated again for 78 h (i.e., a total of 168 h) under the same conditions. Thereafter, 40 µl of 1% (v/v) iodine were added to individual wells, and worms examined using a light microscope (M80, Leica) at 60-times magnification to assess larval development, based on the presence/absence of a well-developed pharynx ([Sommerville, 1966]), and/or phenotypic alterations with respect to untreated xL3s.

He. polygyrus in mice = experiment: In vivo activity against He. polygyrus in mice
Description: Candidate compound(s) were tested for their effect on other nematode species (He. polygyrus and A. ceylanicum) in infected rodents.
For He. polygyrus, four NMRI mice (3 weeks old; female) were infected orally with 88 He. polygyrus L3s, and immunosuppressed with 0.25 mg/ml dexamethasone (Sigma-Aldrich), in the drinking water, until 2 days prior to treatment ([Mes et al., 2007]). For A. ceylanicum, four Syrian golden hamsters (3 weeks old; male) were infected orally with 300 L3s without immunosuppression ([Tritten et al., 2012]). […] Four each of untreated mice and hamsters served as placebo controls. Six to 7 days post-treatment with the compound, all animals were euthanised by CO2 (hamsters being initially narcotised using isoflurane), and the intestine was dissected. The live adult worms were collected and counted to calculate the worm burden reductions and worm expulsion rates. The worm burden reduction was calculated using the mean number of live worms for the treated group and establishing the differences, in a percentage, with reference to the untreated control group.

H. contortus xL3s [4] = experiment: Cell lethality in xL3s (Sytox Green staining); format: cell-based, Haemonchus contortus
Description: Fluorescence staining was employed to assess the ability of UMW-868 to reduce the viability of H. contortus. The xL3s were dispensed in 96-well plates at a density of 300 xL3 per well, and incubated with compounds UMW-868 or A-3155, non-active analogs of UMW-868, at 50 μM at 38°C, 10% (v/v) CO2 and >90% relative humidity. After 90 h of incubation, H. contortus xL3s were stained with Sytox Green nucleic acid stain (Thermo Fisher Scientific) at the final concentration of 1 µM in LB* in the same 96-well plates and incubated for 1 h at 38°C and 10% (v/v) CO2 with >90% relative humidity. Following the incubation, the viability of larvae was evaluated by measuring the relative fluorescent units (RFU) of xL3s using an Omega FLUOstar microplate reader (BMG Labtech), with excitation and emission wavelengths set at 485 nm and 520 nm, respectively. The 96-well plates containing the stained larvae were returned to the incubator for further 78 h; after a total of 168 h of compound exposure, the stained larvae were examined under an inverted fluorescence microscope (DM IL, Leica) equipped with a green fluorescent protein filter (470/500/525 […]; Leica), and imaged using Leica Application Suite software (Leica).

[5] = Cellular toxicity in HepG2 cells (crystal violet); format: cell-based, human; conditions: human, HepG2 human hepatoma cells; HepG2, 48 h; read-out: Cytotoxicity (48 h) CC50
Description: (§1) The toxicities of compounds on cell and mitochondria were assessed to estimate their half-maximal cytotoxic concentrations (CC50) and half-maximal mitotoxic concentrations (MC50), respectively. HepG2 human hepatoma cells were seeded into wells of a 96-well plate at a density of 5.5 × 10^4 cells per well in 80 µl of Dulbecco’s modified eagle medium (DMEM; with GlutaMax™ cat. no. 10566016 or 4 mM L-glutamine cat. no. 11966025; Thermo Fisher Scientific), supplemented with 25 mM D-glucose (cytotoxicity) or D-galactose (mitotoxicity), 10% (v/v) inactivated foetal bovine serum (iFBS), 100 IU/ml of penicillin, 100 μg/ml of streptomycin and 0.25 μg/ml of amphotericin B (designated DMEM*). Cells were allowed to adhere for 16 h at 37°C and 5% (v/v) CO2 at > 90% relative humidity, then, incubated for 48 h with individual, serially-diluted compounds (two-fold serial dilution in DMEM*; […]) in a final volume of 100 µl. For the assessment of toxicity on mitochondria, cells were starved of serum (DMEM* without iFBS) for 4 h prior to the 48 h-incubation with compounds ([Swiss and Will, 2011]; [Kamalian et al., 2015]). Two positive control compounds, doxorubicin (cytotoxic control) and M-666 (mitotoxic control) were each added to three individual wells in each 96-well plate at a single concentration of 10 µM. DMEM* + 0.25% (v/v) DMSO was added to 12 wells in each plate as negative controls. Monepantel and moxidectin were also serially diluted — prepared in the same manner as test compounds — and used as (“non-toxic”) reference compounds. After 48 h of incubation, cell viability was determined by the crystal violet staining method ([Śliwka et al., 2016]). The absorbance (595 nm) of treated cells was normalised with reference to the negative control (100% viability). To determine the CC50 and MC50 values, compound concentrations were log10-transformed, baseline-corrected using a respective positive control (doxorubicin or M-666) and fitted using a variable slope four-parameter equation with a least squares (ordinary) fit model using GraphPad Prism software (v.9.1.2). Compounds and controls were tested in triplicate.

[6] = tested on: HepG2 human hepatoma cells; experiment: Cellular toxicity in HepG2 cells (crystal violet); format: cell-based; conditions: HepG2 cells, concentrations of up to 100 µM
Description: as §1

[7] = mouse, He. polygyrus, 200 mg/kg single oral dose

In the case of `CCCc1ccc(-c2nc(-c3cccs3)no2)cc1` [UMW-868, 5-(4-propylphenyl)-3-(2-thienyl)-1,2,4-oxadiazole], the “motility reduction of C. elegans” value ([1]; 10 µM, at 40 h) is reported as 53.5%, the IC50 ([1]; Caenorhabditis elegans, read-out: IC50 (C. elegans motility)) is reported as 9.9 µM and the IC50 (H. contortus xL3s [2]; 90 h, xL3s, 90 h, read-out: IC50 (motility)) is reported as 5.6 µM. The IC50 (H. contortus xL3s [2]; 168 h, analog series, read-out: xL3 motility reduction (IC50 in µM)) was 13.8 µM, the “Abnormal phenotype detected at 168 h” value ([3]; 20 µM) was “Cur, Evi” and the inhibition at 20 µM ([3]; Haemonchus contortus, development to L4) was 80 to 99%. For the same molecule, the “acute toxicity and pathological changes in treated animals” value (He. polygyrus in mice; mice, single oral dose, post-mortem examination) was “neither evidence of acute toxicity”, the “Mean no. of worms (SD)” value (He. polygyrus in mice; [7]) was 12.0 (3.5) and the “Reduction in infection intensity (%)” value (He. polygyrus in mice; [7]) was 47%. The “percentage of treated xL3s killed” value (H. contortus xL3s [4]; 50 μM, 90 h) was 100%, the “concentration at which cell death was detected in xL3s” value (H. contortus xL3s [4]; 90 h of exposure) was greater than 5 µM and the “dead cells detected microscopically in xL3s (Sytox Green)” value (H. contortus xL3s [4]; 168 h of exposure) was “dead cells could be seen throughout the larvae”. The IC50 (H. contortus xL3s [4]; Haemonchus contortus, 90 h, read-out: IC50 (lethality, inducing cell death in xL3s)) was 34.8 µM, the CC50 at 48 h [5] was greater than 50 µM and the “cytotoxicity (in words)” value [6] was “did not display any appreciable cytotoxicity”.

Reference: publication PMC9616048, “Thermal proteome profiling reveals Haemonchus orphan protein HCO_011565 as a target of the nematocidal small molecule UMW-868” (Frontiers in Pharmacology, 2022)
